# PMC7221793, “Metabolism and Pharmacokinetics of SP-8356, a Novel (1S)-(−)-Verbenone Derivative, in Rats and Dogs and Its Implications in Humans” (Molecules, 2020)
# Read-outs that look alike come from different tables or passages of the source.
# Assays:
# [1] = design: method as in PMID 31036845; conditions: mice, intraperitoneal administration ref 10; cited from earlier work
# [2] = Bioactivation studies in rat liver S9 fraction; assay type: in vitro ADME; conditions: rat liver S9 1 mg/mL; for remaining at 1 h, 5 µM: Sprague-Dawley, rat, liver S9 fraction, read-out: SP-8356 (% Remaining at 60 min)
# Description: SP-8356 was incubated with 1 mg/mL rat liver S9 fraction in 0.1 M potassium phosphate buffer (pH 7.4) in the absence and presence of GSH, AA, NADPH, UDPGA, PAPS and SAM. The final reaction mixture contained 5 µM SP-8356, 8 mM MgCl2, 25 µg/mL alamethicin and 1 mM cofactor in final volume of 160 µL. The reaction was initiated by adding a 10 mM cofactor solution prepared in 0.1 M potassium phosphate buffer (pH 7.4), following a 5 min preincubation of the incubation mixture at 37 °C. The final study groups were as follows: no cofactor (control), AA, NADPH, GSH, GSH + AA, GSH + NADPH and GSH + UDPGA + PAPS + SAM. The reaction was quenched at (0 and 60) min by adding 160 µL of ice-cold acetonitrile containing HSDH (1 µg/mL). Following a brief vortexing and sonication, the mixtures were centrifuged at 3,000 rpm at 4 °C for 20 min. The supernatant mixed with the same volume of deionized water on an Agilent 96-well plate was analyzed by Agilent 6530 Q-TOF LC-MS/MS system equipped with dual AJS ESI ion source and Agilent 1200 series HPLC system, as follows.
# Chromatographic separation was performed on a Phenomenex Kinetex C18 column (50 mm × 2.1 mm, 2.6 µm) (USA) with 0.1 vol.% formic acid in deionized water (A) and 0.1 vol.% formic acid in acetonitrile (B) running at 0.45 mL/min in the following gradient elution: 2 vol.% B for the initial 2 min, linear gradient to 95 vol.% B for 1 min and maintaining 95 vol.% B for 5 min. The injection volume was 5 μL and the column temperature was set at 50 °C. The ion source and mass analyzer parameters of the mass spectrometer were the same as in Section 4.4. LC-MS chromatograms and mass spectra were extracted using Agilent MassHunter Qualitative Analysis software (version B.05.00) (Santa Clara, CA, USA).
# [3] = In vivo metabolite identification, pooled dog plasma (Q-TOF LC-MS/MS); conditions: i.v. SP-8356 50 mg/kg
# Description: Plasma samples from the i.v. administrations described in Section 4.2 and Section 4.3 were used in this study. Plasma samples pooled at each time point were subjected to sample preparation as described in Section 4.2. The prepared samples were analyzed by Agilent 6530 Q-TOF LC-MS/MS system equipped with dual AJS ESI ion source and Agilent 1200 series HPLC system as described below.
# Chromatographic separation was achieved on an Agilent Eclipse C18 column (2.1 mm × 100 mm, 3.5 µm) by a gradient elution with a mobile phase consisting of 0.1 vol.% formic acid in water (A) and 0.1 vol.% formic acid in acetonitrile (B) at 50 °C: starting with 5 vol.% B for 2 min, ramping to 95 vol.% B over 1 min, maintaining for 3 min. The mobile phase flow rate was kept at 0.45 mL/min throughout the run. The sample injection volume was 5 µL. Ion source parameters were set as follows: capillary voltage, 3500 V; drying gas, 12 L/min and 300 °C; nebulizer gas, 30 psi; sheath gas, 12 L/min and 300 °C. Mass spectra were acquired in negative ion auto MS/MS mode (F, 135 V; CE, 25 eV) with full scan range of m/z (100–1000) and mass scan rate of 8 spectra/s. Metabolites were identified using Agilent MassHunter Metabolite ID software (version B.04.00) (Santa Clara, CA, USA). Chromatograms and mass spectra of the parent and identified metabolites were extracted using Agilent MassHunter Qualitative Analysis software (version B.05.00) (Santa Clara, CA, USA).
smiles,measurement,setting,value
"COc1cc(/C=C/C2=CC(=O)[C@H]3C[C@@H]2C3(C)C)cc(O)c1O [SP-8356, (1S,5R)-4-((E)-3,4-dihydroxy-5-methoxystryryl)-6,6-dimethylbicylco[3.1.1]hept-3-en-2-one]",plasma exposure,[1],Low plasma exposure
same,"remaining at 1 h, 5 µM","[2]; pH 7.4, cofactors: AA (1 mM)",106 ± 2.6%
same,"remaining at 1 h, 5 µM","[2]; pH 7.4, cofactors: GSH (1 mM)",29.1 ± 6.9%
same,"remaining at 1 h, 5 µM","[2]; pH 7.4, cofactors: GSH + AA",92.1 ± 1.7%
same,"remaining at 1 h, 5 µM","[2]; pH 7.4, cofactors: GSH + NADPH",18 ± 1.9%
same,"remaining at 1 h, 5 µM","[2]; pH 7.4, cofactors: GSH + UDPGA + PAPS + SAM",1.3 ± 0.2%
same,"remaining at 1 h, 5 µM","[2]; pH 7.4, cofactors: NADPH (1 mM)",21.6 ± 2%
same,"remaining at 1 h, 5 µM","[2]; pH 7.4, cofactors: None",~20%
same,SP-8356 (% Remaining at 60 min),"[2]; cofactors: None, 5 μM",20.3 ± 1.9%
same,AUClast (%),[3]; % versus total AUClast of parent and all detected metabolites,17.66%
same,AUClast (AR∙h) × 10^2,[3]; AR = peak area ratio versus internal standard,698.5 (AR∙h) × 10^2
